Results published in ChEMBL document CHEMBL2413061, “Synthesis and cytotoxic activity evaluation of 2,3-thiazolidin-4-one derivatives on human breast cancer cell lines” (Bioorg Med Chem Lett, 2013).
Activity calls are given as the source filed them. The calls are words filed in the database; no cut-off is given here.

Experiments:
NIH3T3 = assay: Cytotoxicity against mouse 3T3 cells assessed as cell viability at 0.1 to 10 uM after 72 hrs by MTT assay; assay type: cell-based; settings: nih3t3, 72 h
SK-BR-3 [1] = assay: Cytotoxicity against human estrogen receptor negative SKBR3 cells at 0.1 to 50 uM after 72 hrs by MTT assay; assay type: functional, cell-based
MCF7 [2] = assay: Cytotoxicity against human estrogen receptor positive MCF7 cells after 72 hrs by MTT assay; assay type: functional, cell-based; settings: for IC50: MCF7, 72 h
SK-BR-3 [3] = assay: Cytotoxicity against human estrogen receptor negative SKBR3 cells at 10 uM after 72 hrs by MTT assay; assay type: functional, cell-based
SK-BR-3 [4] = assay: Cytotoxicity against human estrogen receptor negative SKBR3 cells after 72 hrs by MTT assay; assay type: functional, cell-based; settings: SK-BR-3, 72 h
MCF7 [5] = assay: Cytotoxicity against human estrogen receptor positive MCF7 cells at 50 uM after 72 hrs by MTT assay; assay type: functional, cell-based
MCF7 [6] = assay: Cytotoxicity against human estrogen receptor positive MCF7 cells at 0.1 uM after 72 hrs by MTT assay; assay type: functional, cell-based
MCF7 [7] = assay: Cytotoxicity against human estrogen receptor positive MCF7 cells at 1 to 10 uM after 72 hrs by MTT assay; assay type: functional, cell-based
MCF7 [8] = assay: Cytotoxicity against human estrogen receptor positive MCF7 cells at 1 uM after 72 hrs by MTT assay; assay type: functional, cell-based

SMILES | Activity (NIH3T3) | inhibition (SK-BR-3 [1]) | Activity (MCF7 [2]) | inhibition (SK-BR-3 [3]) | IC50 (SK-BR-3 [4]) | inhibition (MCF7 [5]) | inhibition (MCF7 [6]) | Activity (MCF7 [7]) | IC50 (MCF7 [2]) | inhibition (MCF7 [8])
Cc1ccc(N2C(=O)CSC2c2ccc(Cl)cc2)cc1 (stereo unspecified) | Non-toxic | inactive | Dose-dependent effect | Active |  |  |  |  |  | 
O=C1CSC(c2cc(O)cc(O)c2)N1c1ccc(O)cc1 (stereo unspecified) | Non-toxic | inactive | Dose-dependent effect | Active |  |  |  |  |  | 
O=C1CSC(c2ccccc2)N1c1ccccc1 (stereo unspecified) | Non-toxic |  | Dose-dependent effect |  | 810 nM |  |  |  |  | 
Cc1ccc(N2C(=O)CSC2c2cccc3ccccc23)cc1 (stereo unspecified) | Non-toxic |  |  |  | 250 nM | inactive | Active |  |  | 
COc1ccc(C2SCC(=O)N2c2ccc(O)cc2)cc1OC (stereo unspecified) | Non-toxic | inactive | Dose-dependent effect | Active |  |  |  | Active | 2580 nM | 
O=C1CSC(c2ccc(O)cc2O)N1c1ccc(O)cc1 (stereo unspecified) | Non-toxic | inactive |  |  |  |  |  |  |  | 
O=C1CSC(c2ccc(Cl)cc2)N1c1ccc(O)cc1 (stereo unspecified) | Non-toxic | inactive | Dose-dependent effect | Active |  |  |  | Active | 5000 nM | 
COc1cc(C2SCC(=O)N2c2ccc(O)cc2)cc(OC)c1OC (stereo unspecified) | Non-toxic | inactive | Dose-dependent effect | Active |  |  |  |  |  | 
COc1cc(C2SCC(=O)N2c2ccc(C)cc2)cc(OC)c1OC (stereo unspecified) | Non-toxic |  |  |  | 230 nM |  |  |  |  | 
O=C1CSC(c2ccc(O)cc2)N1c1ccc(O)cc1 (stereo unspecified) | Non-toxic | inactive |  |  |  |  |  |  |  | 
Oc1ccc(/C=C/c2cc(O)cc(O)c2)cc1 [RESVERATROL] |  |  |  |  | 41400 nM |  |  |  | 28100 nM | 
O=C1CSC(c2ccc(O)c(O)c2)N1c1ccc(O)cc1 (stereo unspecified) | Non-toxic | inactive |  |  |  | inactive |  |  |  | Active
COc1ccc(C2SCC(=O)N2c2ccc(O)cc2)c(OC)c1 (stereo unspecified) | Non-toxic | inactive | Dose-dependent effect |  |  |  |  |  |  | 
